For assay [1], the target named is T1, Prostaglandin G/H synthase 2 (Homo sapiens) (UniProt P35354).
T1 sequence (whole entry): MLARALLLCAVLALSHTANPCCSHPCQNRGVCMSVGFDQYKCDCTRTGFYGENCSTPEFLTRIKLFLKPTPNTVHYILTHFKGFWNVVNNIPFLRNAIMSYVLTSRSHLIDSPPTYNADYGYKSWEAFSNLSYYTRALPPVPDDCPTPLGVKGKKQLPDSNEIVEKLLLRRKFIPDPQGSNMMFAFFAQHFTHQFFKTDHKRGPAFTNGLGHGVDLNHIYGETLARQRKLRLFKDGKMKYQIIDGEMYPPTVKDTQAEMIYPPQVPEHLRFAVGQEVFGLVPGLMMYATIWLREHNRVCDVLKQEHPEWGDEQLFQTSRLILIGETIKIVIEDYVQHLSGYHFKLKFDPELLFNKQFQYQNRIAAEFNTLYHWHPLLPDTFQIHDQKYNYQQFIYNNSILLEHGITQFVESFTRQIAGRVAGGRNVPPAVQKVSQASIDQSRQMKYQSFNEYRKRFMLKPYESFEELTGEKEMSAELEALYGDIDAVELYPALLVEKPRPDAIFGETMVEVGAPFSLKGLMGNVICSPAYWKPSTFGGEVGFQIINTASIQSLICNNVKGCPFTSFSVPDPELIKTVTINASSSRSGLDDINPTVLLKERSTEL
Briefly: Inhibition of human recombinant COX-2 using arachidonic acid as substrate assessed as oxygen consumption at 30 to 100 uM measured within 10 to 50 secs relative to control.

Assay [2] has as its target T1, Prostaglandin G/H synthase 2 (Homo sapiens). Description: Inhibition of human recombinant COX-2 using arachidonic acid as substrate assessed as oxygen consumption at 10 uM measured within 10 to 50 secs relative to control.
Assay [3] deals with T2, Monoglyceride lipase (Homo sapiens) (UniProt Q99685).
T2 sequence (whole entry): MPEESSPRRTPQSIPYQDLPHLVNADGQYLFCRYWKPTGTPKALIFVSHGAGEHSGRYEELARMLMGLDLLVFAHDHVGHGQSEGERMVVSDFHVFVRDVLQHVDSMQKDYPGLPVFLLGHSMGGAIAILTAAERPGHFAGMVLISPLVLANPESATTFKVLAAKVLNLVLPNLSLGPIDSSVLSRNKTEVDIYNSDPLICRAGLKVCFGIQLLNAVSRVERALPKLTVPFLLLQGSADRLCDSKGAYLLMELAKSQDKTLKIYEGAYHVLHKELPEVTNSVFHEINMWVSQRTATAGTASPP
Briefly: Inhibition of human recombinant MAGL overexpressed in HEK cells using 2-AG as substrate at 10 uM preincubated for 10 mins before substrate addition measured after 10 mins by HPLC analysis relative to control. It is filed as cell-based. Particulars: HEK293.

The nature of assay [4]: Selectivity ratio for human recombinant FAAH over ovine COX-1.
Assay [5] addresses T3, Lysophosphatidylserine lipase ABHD12 (Homo sapiens) (UniProt Q8N2K0).
T3 sequence (whole entry): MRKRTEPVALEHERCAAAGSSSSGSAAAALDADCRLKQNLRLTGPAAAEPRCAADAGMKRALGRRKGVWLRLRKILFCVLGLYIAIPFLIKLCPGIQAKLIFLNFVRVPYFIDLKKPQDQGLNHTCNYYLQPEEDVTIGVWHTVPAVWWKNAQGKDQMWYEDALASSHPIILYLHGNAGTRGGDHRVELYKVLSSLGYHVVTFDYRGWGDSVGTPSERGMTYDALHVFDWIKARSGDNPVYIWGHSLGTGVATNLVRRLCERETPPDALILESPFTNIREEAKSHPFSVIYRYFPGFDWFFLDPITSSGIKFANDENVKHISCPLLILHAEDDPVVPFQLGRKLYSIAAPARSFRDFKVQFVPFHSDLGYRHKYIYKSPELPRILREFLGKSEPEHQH
Briefly: Inhibition of human ABHD12 overexpressed in HEK293 cells assessed as 2-AG hydrolysis at 1 uM by fluorescent glycerol assay. It is filed as cell-based.

The target in assay [6] is T4, Fatty-acid amide hydrolase 1 (Homo sapiens) (UniProt O00519).
T4 sequence (whole entry): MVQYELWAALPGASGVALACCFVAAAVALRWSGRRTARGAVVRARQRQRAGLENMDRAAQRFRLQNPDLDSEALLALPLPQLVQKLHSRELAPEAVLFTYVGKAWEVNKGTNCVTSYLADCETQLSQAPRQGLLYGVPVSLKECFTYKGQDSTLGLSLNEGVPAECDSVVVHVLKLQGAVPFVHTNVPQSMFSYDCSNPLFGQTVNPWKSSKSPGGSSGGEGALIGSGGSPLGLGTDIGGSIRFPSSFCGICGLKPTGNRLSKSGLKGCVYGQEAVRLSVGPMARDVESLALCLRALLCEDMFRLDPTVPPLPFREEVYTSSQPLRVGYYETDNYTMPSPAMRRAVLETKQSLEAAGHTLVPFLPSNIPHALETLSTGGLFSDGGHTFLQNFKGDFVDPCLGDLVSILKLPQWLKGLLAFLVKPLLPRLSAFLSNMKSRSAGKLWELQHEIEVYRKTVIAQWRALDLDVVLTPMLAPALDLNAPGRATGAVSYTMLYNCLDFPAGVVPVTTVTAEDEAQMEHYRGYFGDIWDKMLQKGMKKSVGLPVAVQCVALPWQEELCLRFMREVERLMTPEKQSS
Description: Inhibition of human recombinant FAAH overexpressed in African green monkey COS7 cells using [3H]-anandamide as substrate at 3 to 30 uM preincubated for 10 to 60 mins by liquid scintillation counting analysis. It is filed as cell-based. To be noted: COS-7.

For assay [7], the target named is T1, Prostaglandin G/H synthase 2 (Homo sapiens). Briefly: Inhibition of human recombinant COX-2 assessed as inhibition of 2-AG cyclooxygenation at 100 uM measured within 10 to 50 secs relative to control.
Another assay is filed under the species Homo sapiens. Description: Selectivity ratio for human recombinant FAAH over human recombinant COX-2.

The values that follow come from ChEMBL document CHEMBL3085700 (J Med Chem, 2013).

Molecules are shown by their SMILES. The source made the active and inactive calls. The calls are words filed in the database; no cut-off is given here.

The term inhibition denotes the share of the control response that was lost under treatment. Regarding `COc1nn([C@@H](C)c2ccc(CC(C)C)cc2)c(=O)o1`, the inhibition in assay [1] came out at 30%; in assay [2], 20%; in assay [3] it was 16%; in assay [7] it was 30%. The Selectivity ratio (in assay [4]; in the assay listed under Homo sapiens) was greater than 900 each time. Besides, in assay [5], the inhibition entry was “inactive”. Besides, the inhibition entry in assay [6] is “Active”.
